According to US20250197420A1, “MACROCYCLIC COMPOUNDS, COMPOSITIONS, AND METHODS OF USING THEREOF” (Sionna Therapeutics Inc., priority 2022, published 2025):
Read-outs that look alike come from different tables or passages of the source.

Columns and labels:
[1] = tested on: Primary human bronchial epithelial cells from a ΔF508 homozygous CF donor (CF-HBE cells); assay: TECC24 recording of CFTR-mediated transepithelial chloride transport, AUC fold over benchmark VX-809 @10 μM; type: cell-based; conditions: 48 hours incubation, AUC of forskolin-stimulated IEQ
Method in brief: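 CF-HBE cells on inserts were treated with compound for 48 h at 36.5 °C, then recorded in current-clamp with benzamil 10 μM, forskolin 10 μM, and finally CFTR inhibitor-172 20 μM in pH 7.4 Hepes saline. Equivalent Cl− current AUC between forskolin and inhibitor addition is expressed as a ratio to VX-809 AUC: A <3, B 3–6, C 6–20.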

[2] = target: T1, Purified recombinant NBD1 (Homo sapiens, UniProt P13569); assay: Aggregation analysis using differential static light scattering (DSLS): thermal stability of NBD1; type: binding; conditions: NBD1 0.2 mg/ml; Tagg of compound well minus average Tagg of DMSO control wells
T1 construct: Purified recombinant NBD1 was produced using previously described methods; made in house
Method in brief: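 Recombinant NBD1 at 0.2 mg/ml in Tris/NaCl/MgCl2 buffer with 2 mM ATP, 2 mM DTT, 1% glycerol, pH 7.6, was incubated with compound and heated at 1 °C/min to 70 °C while static light scattering was monitored. Tagg was taken from the curve inflection point and reported as ΔTagg relative to DMSO controls.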

T1 sequence (P13569 423-646 limits assumed): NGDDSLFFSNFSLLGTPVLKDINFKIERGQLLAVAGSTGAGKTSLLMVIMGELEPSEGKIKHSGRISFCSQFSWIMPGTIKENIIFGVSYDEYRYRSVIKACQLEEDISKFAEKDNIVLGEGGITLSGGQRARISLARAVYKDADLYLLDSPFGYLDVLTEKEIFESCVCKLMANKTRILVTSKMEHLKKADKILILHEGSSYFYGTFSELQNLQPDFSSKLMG

Row | Compound | TECC (test agent AUC divided by VX-809 AUC) [1] | DSLS (ΔTagg) [2] | further results
1 | CCOC(=O)CCc1cccc(C2(C)CCCOC(=O)N(C)C/C=C/c3c(c(F)cc4[nH]ccc34)Oc3ccc(F)c(c3)-c3ncc2[nH]3)c1 (stereo not shown) | – | – | ring closure, isolated yield (from CCC[CH2][Sn](/[CH]=C/CN(C)C(=O)OCCCC(C)(c1cccc(CCC(=O)OCC)c1)c1cnc(-c2cc(Oc3c(F)cc4[nH]ccc4c3Br)ccc2F)[nH]1)([CH2]CCC)[CH2]CCC, cc_pd bond, 19-membered ring): 66%
2 | CN1C(=O)OCc2c(c(F)cc3c2ccn3S(=O)(=O)c2ccccc2)Oc2ccc(F)c(c2)-c2nc(nn2C)C(C)(c2cccc(Br)c2)C/C=C\CC1(C)C (stereo not shown) | – | – | ring closure, isolated yield (from (5-(3-(3-(2-(3-Bromophenyl)pent-4-en-2-yl)-1-methyl-1H-1,2,4-triazol-5-yl)-4-fluorophenoxy)-6-fluoro-1 -(phenylsulfonyl)-NH-indol-4-yl)methyl methyl(2-methylpent-4-en-2-yl)carbamate, rcm bond, 19-membered ring, Grubbs II (0.4 eq), toluene, 5.1 mM, 60.0 °C): 60%
3 | CN1CC(C)(C)CCC[C@](C)(c2cccc(I)c2)c2nc(n(C)n2)-c2cc(ccn2)Oc2c(F)cc3[nH]ccc3c2/C=C/C1=O | – | – | ring closure, isolated yield (from CNCC(C)(C)CCC[C@](C)(c1cccc(I)c1)c1nc(-c2cc(Oc3c(F)cc4[nH]ccc4c3/C=C/C(=O)O)ccn2)n(C)n1, amide bond, 19-membered ring, 2 steps): 37%
4 | Cc1ccc(S(=O)(=O)n2ccc3c4c(c(F)cc32)Oc2ccnc(c2)-c2nc(nn2C)[C@@](C)(c2cccc(I)c2)CCCCC(C)(C)CN(C)C(=O)C4)cc1 | – | – | ring closure, isolated yield (amide bond, 19-membered ring, with chain assembly): 35%
5 | Cn1nc2nc1-c1cc(ccc1F)Oc1c(F)cc3[nH]ccc3c1CCC(=O)NS(=O)(=O)CC=CCC2(C)c1cccc(Br)c1 (stereo not shown) | – | – | ring closure, isolated yield (from C=CCC(C)(c1cccc(Br)c1)c1nc(-c2cc(Oc3c(F)cc4[nH]ccc4c3CCC(=O)NS(=O)(=O)CC=C)ccc2F)n(C)n1, rcm bond, 19-membered ring, Grubbs II (0.2 eq), toluene, 2.4 mM, 65.0 °C, 0.75 h): 60%
6 | CN1CC(=O)CCCCCC(C)(c2cccc(CCC(=O)O)c2)c2cnc([nH]2)-c2cc(ccc2F)Oc2c(F)cc3[nH]ccc3c2CC1=O (stereo not shown) [Compound 113, 3-[3-(24,30-Difluoro-6,14-dimethyl-12,15-dioxo-26-oxa-3,14,21,32-tetrazapentacyclo[25.3.1.12,5.017,25.018,22]dotriaconta-1(30),2,4,17(25),18(22),19,23,27(31),28-nonaen-6-yl)phenyl]propanoic acid] | A (a TECC value less than 3 is marked “A”) | C (a value greater than 10 °C and less than or equal to 25 °C is marked “C”) | –
7 | CC(Cc1cccc(C2(C)CCCCS(=O)(=O)NC(=O)CCc3c(c(F)cc4[nH]ccc34)Oc3ccc(F)c(c3)-c3nc2nn3C)c1)C(=O)O (stereo not shown) [Compound 114, 3-[3-(23,29-Difluoro-3,6-dimethyl-11,11,13-trioxo-25-oxa-11λ6-thia-3,4,12,20,31-pentazapentacyclo[24.3.1.12,5.016,24.017,21]hentriaconta-1(30),2(31),4,16,18,21,23,26,28-nonaen-6-yl)phenyl]-2-methyl-propanoic acid] | A (a TECC value less than 3 is marked “A”) | C (a value greater than 10 °C and less than or equal to 25 °C is marked “C”) | –
8 | Cn1nc2nc1-c1cc(ccc1F)Oc1c(F)cc3[nH]ccc3c1CCC(=O)NS(=O)(=O)CCCCC2(C)c1ccccc1 (stereo not shown) [Compound 115] | A (a TECC value less than 3 is marked “A”) | C (a value greater than 10 °C and less than or equal to 25 °C is marked “C”) | –
9 | C[C@@H](Cc1cccc(C2(C)CCCC(C)(C)NS(=O)(=O)CCc3c(c(F)cc4[nH]ccc34)Oc3ccc(F)c(c3)-c3nc2nn3C)c1)C(=O)O (stereo partly drawn) [Compound 116, (2S)-3-[3-(22,28-difluoro-3,6,10,10-tetramethyl-12,12-dioxo-24-oxa-12λ6-thia-3,4,11,19,30-pentazapentacyclo[23.3.1.12,5.015,23.016,20]triaconta-1(29),2(30),4,15,17,20,22,25,27-nonaen-6-yl)phenyl]-2-methyl-propanoic acid] | B (a value between 3 and 6 is marked “B”) | C (a value greater than 10 °C and less than or equal to 25 °C is marked “C”) | –
10 | C[C@@H](Cc1cccc([C@@]2(C)CCCC(C)(C)CN(C)C(=O)CCc3c(c(F)cc4[nH]ccc34)Oc3ccnc(c3)-c3nc2nn3C)c1)C(=O)O [Compound 118, (2S)-3-[3-[(6R)-23-fluoro-3,6,10,10,12-pentamethyl-13-oxo-25-oxa-3,4,12,20,29,31-hexazapentacyclo[24.3.1.12,5.016,24.017,21]hentriaconta-1(30),2(31),4,16,18,21,23,26,28-nonaen-6-yl]phenyl]-2-methyl-propanoic acid] | B (a value between 3 and 6 is marked “B”) | C (a value greater than 10 °C and less than or equal to 25 °C is marked “C”) | –
11 | C[C@H](Cc1cccc([C@@]2(C)CCCC(C)(C)CN(C)C(=O)CCc3c(c(F)cc4[nH]ccc34)Oc3ccnc(c3)-c3nc2nn3C)c1)C(=O)O [Compound 119, (2R)-3-[3-[(6R)-23-fluoro-3,6,10,10,12-pentamethyl-13-oxo-25-oxa-3,4,12,20,29,31-hexazapentacyclo[24.3.1.12,5.016,24.017,21]hentriaconta-1(30),2(31),4,16,18,21,23,26,28-nonaen-6-yl]phenyl]-2-methyl-propanoic acid] | B (a value between 3 and 6 is marked “B”) | B (a value above 5 °C and less than or equal to 10 °C is marked “B”) | –
12 | CN1CC(C)(C)CCC[C@](C)(c2cccc(CC(C)(C)C(=O)O)c2)c2nc(n(C)n2)-c2cc(ccn2)Oc2c(F)cc3[nH]ccc3c2CCC1=O [Compound 120, 3-[3-[(6R)-23-fluoro-3,6,10,10,12-pentamethyl-13-oxo-25-oxa-3,4,12,20,29,31-hexazapentacyclo[24.3.1.12,5.016,24.017,21]hentriaconta-1(30),2(31),4,16,18,21,23,26,28-nonaen-6-yl]phenyl]-2,2-dimethyl-propanoic acid] | A (a TECC value less than 3 is marked “A”) | B (a value above 5 °C and less than or equal to 10 °C is marked “B”) | –
13 | C[C@@H](Cc1cccc([C@@]2(C)CCCCC(C)(C)CN(C)C(=O)Cc3c(c(F)cc4[nH]ccc34)Oc3ccnc(c3)-c3nc2nn3C)c1)C(=O)O [Compound 121, (2S)-3-[3-[(6R)-23-fluoro-3,6,11,11,13-pentamethyl-14-oxo-25-oxa-3,4,13,20,29,31-hexazapentacyclo[24.3.1.12,5.016,24.017,21]hentriaconta-1(30),2(31),4,16,18,21,23,26,28-nonaen-6-yl]phenyl]-2-methyl-propanoic acid] | A (a TECC value less than 3 is marked “A”) | C (a value greater than 10 °C and less than or equal to 25 °C is marked “C”) | –
14 | C[C@H](Cc1cccc([C@@]2(C)CCCCC(C)(C)CN(C)C(=O)Cc3c(c(F)cc4[nH]ccc34)Oc3ccnc(c3)-c3nc2nn3C)c1)C(=O)O [Compound 122, (2R)-3-[3-[(6R)-23-fluoro-3,6,11,11,13-pentamethyl-14-oxo-25-oxa-3,4,13,20,29,31-hexazapentacyclo[24.3.1.12,5.016,24.017,21]hentriaconta-1(30),2(31),4,16,18,21,23,26,28-nonaen-6-yl]phenyl]-2-methyl-propanoic acid] | A (a TECC value less than 3 is marked “A”) | B (a value above 5 °C and less than or equal to 10 °C is marked “B”) | –
15 | CN1CC(C)(C)CCCC[C@](C)(c2cccc(CCC(=O)O)c2)c2nc(n(C)n2)-c2cc(ccn2)Oc2c(F)cc3[nH]ccc3c2CC1=O [Compound 123, 3-[3-[(6R)-23-Fluoro-3,6,11,11,13-pentamethyl-14-oxo-25-oxa-3,4,13,20,29,31-hexazapentacyclo[24.3.1.12,5.016,24.017,21]hentriaconta-1(30),2(31),4,16,18,21,23,26,28-nonaen-6-yl]phenyl]propanoic acid] | A (a TECC value less than 3 is marked “A”) | C (a value greater than 10 °C and less than or equal to 25 °C is marked “C”) | –
16 | CN1CC(C)(C)CCCC[C@](C)(c2cccc(CC(C)(C)C(=O)O)c2)c2nc(n(C)n2)-c2cc(ccn2)Oc2c(F)cc3[nH]ccc3c2CC1=O [Compound 124, 3-[3-[(6R)-23-fluoro-3,6,11,11,13-pentamethyl-14-oxo-25-oxa-3,4,13,20,29,31-hexazapentacyclo[24.3.1.12,5.016,24.017,21]hentriaconta-1(30),2(31),4,16,18,21,23,26,28-nonaen-6-yl]phenyl]-2,2-dimethyl-propanoic acid] | A (a TECC value less than 3 is marked “A”) | A (an ΔTagg value less than or equal to 5 °C is marked “A”) | –
17 | Methyl (2S)-3-[3-[(13E)-22,28-difluoro-3,6,10,10-tetramethyl-12,12-dioxo-]9-(p-tolylsulfonyl)-24-oxa-12A6-thia-3,4,11,19,30-pentazapentacyclo[23.3.1.12,5.015,23.016,20]triaconta-1(29),2(30),4,13,15,17,20,22,25,27-decaen-6-yl]phenyl]-2-methyl-propanoate | – | – | ring closure, isolated yield (cc_pd bond, 18-membered ring, Pd(PtBu3)2/TEA, toluene, 1.75 mM, 100.0 °C): 65%
